Results taken from PMC12040169 (PLOS Biology, 2025).

Assay: in vitro
Conditions: human, hela cells, % viability

| SMILES | viability at 28.5 h, 10 µM [%] |
| --- | --- |
| CC(C)CNC(=O)c1cccc(NC(=O)N2CCC2c2cccs2)c1 (stereo not shown) [CBK306927] | 99.9 |
| CCc1nccn1CC(=O)N(C)C1CCCN(Cc2ccccc2F)C1 (stereo not shown) [CBK306928] | 102 |
| COc1cccc(OCC2CCCN(C(=O)CCc3cnn(C)c3)C2)c1 (stereo not shown) [CBK306931] | 85 |
| CC(=O)N1CCc2nc(CC3CC3)nc(NCCn3ccnn3)c2CC1 [CBK306933] | 94.7 |
| COCCN(Cc1ccccc1C)C(=O)C1CCc2nn(C)c(=O)n2C1 (stereo not shown) [CBK306934] | 80.8 |
| CCCCC(c1cccnc1)N(C)C(=O)Cn1ccccc1=O (stereo not shown) [CBK306936] | 104 |
| COc1cccc2ncn(Cc3n[nH]c(C)n3)c(=O)c12 [CBK306938] | 89.7 |
| COc1c(C)cc(-c2[nH]c(C)nc2C)cc1C [CBK306941] | 86.6 |
| CC1(C)Cc2nc(N3CCOCC3)ncc2C(NC(=O)C2CCC2)C1 (stereo not shown) [CBK306943] | 83.8 |
| CCCC(=O)NCC1Cc2cc(F)cc(-c3ccc(C(C)=O)s3)c2O1 (stereo not shown) [CBK306945] | 90.3 |
| CCN1CCC2(CCC1=O)CN(Cc1cncn1CC(C)C)CCN2C (stereo not shown) [CBK306947] | 96 |
| Cc1cccnc1CN1CCN(C(=O)NCCSc2nncn2C)CC1 [CBK306949] | 89.9 |
| CN1CC2(CCCN(Cc3noc(-c4ccccc4)n3)C2)OC1=O (stereo not shown) [CBK306952] | 93 |
| Cc1nc(N2CCCCC2)ncc1C(=O)NCCSc1nncn1C [CBK306955] | 81.1 |
| Cn1c(O)c(CCNc2cc([C@H]3C[C@@H](O)C3)nc(N)n2)cnc1=O [CBK306956] | 104 |
| O=c1cc(N2CCN(CC3CCOC3)CC2)c(-c2ccccc2)n[nH]1 (stereo not shown) [CBK306957] | 91.5 |
| Cc1cccc(C2CCCN(C(=O)Nc3cnn(C)c3)C2)c1 (stereo not shown) [CBK306961] | 102 |
| Cc1nc(CCCn2cnc3nccnc3c2=O)sc1C [CBK306962] | 103 |
| Cc1nc(N)nc(NCC(O)CN(C)C)c1Cl (stereo not shown) [CBK306963] | 81.7 |
| COCCN(Cc1ccncc1)C(=O)c1cnc2ccnn2c1C [CBK306965] | 92.3 |
| Cc1cc(C)c2nonc2c1S(=O)(=O)NCCN1CCCCC1CO (stereo not shown) [CBK306966] | 94.8 |
| CCN1CCC2(CCC1=O)CN(Cc1noc(CC(C)C)n1)CCN2C (stereo not shown) [CBK306971] | 90.5 |
| Cn1cc(CCNC(=O)N(Cc2ccccn2)CC2CCCO2)cn1 (stereo not shown) [CBK306973] | 99.2 |

| SMILES | viability at 28.5 h, 10 µM [%] |
| --- | --- |
| Nc1nc(CCC(=O)N2CCCC(c3cc(O)ncn3)C2)cs1 (stereo not shown) [CBK306976] | 89.5 |
| CC(C)(O)C1CCCN(C(=O)c2coc(COc3cccc(F)c3)n2)C1 (stereo not shown) [CBK306977] | 77.4 |
| CC1(C)Cc2nc(N3CCOCC3)ncc2C(NC(=O)NC(C)(C)C)C1 (stereo not shown) [CBK306978] | 101 |
| O=C(c1cn2cc(-c3cccs3)n(CC3CC3)c(=O)c2n1)N1CC(O)C1 [CBK306979] | 97.4 |
| c1cnc(NCc2cc3n(n2)CCN(CC2CCCNC2)C3)nc1 (stereo not shown) [CBK306981] | 102 |
| Cn1ccnc1CN1CCC2(CC1)CC(C(=O)O)N(C(=O)C1CC1)C2 (stereo not shown) [CBK306986] | 88.2 |
| COCC1(C(=O)N(C)Cc2nnc(-c3ccccc3)o2)CCC1 [CBK306987] | 109 |
| Cc1cc(O)n2nc(CC(=O)NCc3nnc4n3CCCCC4)nc2n1 [CBK306989] | 103 |
| CCN1CCN(Cc2cc(Cl)ccc2OCCCn2ccnc2)CC1 [CBK306990] | 83.2 |
| Cc1nc2c(c(=O)n1C)CN(Cc1cc(=O)n3cccc(O)c3n1)C2 [CBK306991] | 78.8 |
| Cc1nc(CCC(=O)N2Cc3cnn(Cc4ccc(F)cc4)c3C2)n[nH]1 [CBK306993] | 109 |
| O=C(NCCCn1cccc1)N1CCN(Cc2ccc(F)cc2)CC1 [CBK306994] | 107 |
| CCN1CCCC(CNS(=O)(=O)c2cc(-n3cccn3)ccc2OC)C1 (stereo not shown) [CBK306997] | 85.3 |
| Cc1ccc2nc(N3CCCC(O)C3)c(CN3CCSCC3)cc2c1 (stereo not shown) [CBK307000] | 94.7 |
| CCC1(C)CC(=O)c2cc(NC(=O)N(CCO)CCO)ccc2O1 (stereo not shown) [CBK307003] | 116 |
| Cc1cc(NCC2(CO)CCOCC2)nc(N2CCCC2)n1 [CBK307005] | 85.8 |
| CC(NC(=O)C1(Cn2ccnc2)CC1)c1ccccc1-n1cccn1 (stereo not shown) [CBK307006] | 94.3 |
| CC1(C#N)CCCN(Cc2c[nH]nc2C(=O)O)C1 (stereo not shown) [CBK307010] | 80.1 |
| Cn1cc(C(Nc2cccc(C#N)n2)[C@H]2C[C@H](O)C2)cn1 (stereo partly shown) [CBK307011] | 105 |
| CCOC(=O)C1(Cc2ccc(F)cc2F)CCCN(C(=O)CC)C1 (stereo not shown) [CBK307012] | 92.7 |
| CCOc1ccc(Cl)cc1CN(C)C(=O)NCC(c1ccco1)N(C)C (stereo not shown) [CBK307013] | 88 |
| COCCc1nc(CN(C)C)n(Cc2ccccc2C)n1 [CBK307014] | 87.8 |
| COc1nc2ccn(CCNC(=O)C(C)C)c(=O)c2cc1C#N [CBK307015] | 95.8 |

| SMILES | viability at 28.5 h, 10 µM [%] |
| --- | --- |
| Cc1ccc2nc(N3CCCC(O)C3)c(CN3CCC(F)CC3)cc2c1 (stereo not shown) [CBK307016] | 89.1 |
| CCN1CC2(CCC1=O)CCN(c1ccnc(OC)c1C#N)CC2 [CBK307018] | 95 |
| Nc1nc(CCC(=O)N2Cc3cnn(Cc4ccc(F)cc4)c3C2)cs1 [CBK307019] | 99.6 |
| Cc1cccc(OCC2CCCN(C(=O)c3cn(C)cn3)C2)c1 (stereo not shown) [CBK307021] | 83.4 |
| Cc1cc2nc(C(=O)NCCCn3ccnc3C(C)C)cc(C)n2n1 [CBK307022] | 90.5 |
| Cn1nc(NC(=O)Cc2ccsc2)c2c(N3CCOCC3)cccc21 [CBK307023] | 109 |
| CN1CCC(Cc2nc(-c3ccc(Cl)s3)n(CCO)n2)CC1 [CBK307025] | 100 |
| Cc1ccn2c(F)c(C(=O)N3CCCCC3CN3CCOCC3)nc2c1 (stereo not shown) [CBK307028] | 82 |
| O=C(CCn1cnnn1)N1C[C@H]2CC[C@@H]1CN(Cc1cccnc1)C2 [CBK307029] | 88.9 |
| Cc1cccc(=O)n1CCCNc1cc(C2CCOC2)nc(N)n1 (stereo not shown) [CBK307030] | 81.9 |
| CCCNC(=O)N1CCCC(Cc2ccc(F)cc2F)(C(=O)OCC)C1 (stereo not shown) [CBK307031] | 94.2 |
| Cn1c(N2CCOCC2)nc2cc(C(=O)NCCn3cccn3)ccc21 [CBK307033] | 87.5 |
| Cc1cc(-c2cn3cc(C(=O)NCCCCO)nc3c(=O)n2C)c(C)o1 [CBK307037] | 106 |
| Cc1cc(-c2cn3cc(C(=O)N4CCCC4C)nc3c(=O)n2C)c(C)o1 (stereo not shown) [CBK307038] | 84.8 |
| CCNC(=O)C1CCN(Cc2nc(-c3cc(OC)ccc3F)oc2C)C1 (stereo not shown) [CBK307040] | 98.4 |
| CC(=O)Nc1ccc(CNC(=O)CN(C)Cc2cc(C)on2)cc1 [CBK307042] | 82.4 |
| Cc1nn2c(=O)[nH]ncc2c1-c1ccccc1C(=O)N(C(C)C)C(C)C [CBK307043] | 109 |
| Nc1nonc1-n1nncc1CN1CCCCC1 [CBK307045] | 86.9 |
| CCC(NC(=O)C1(Cn2ccnc2)CC1)c1ncccc1C (stereo not shown) [CBK307046] | 119 |
| COc1cncc(C(NC(=O)c2ccc3[nH]nnc3c2)[C@H]2C[C@@H](O)C2)c1 (stereo partly shown) [CBK307049] | 108 |
| CC#CC(=O)N1CCCC(Cc2ccc(F)cc2F)(C(=O)OCC)C1 (stereo not shown) [CBK307051] | 111 |
| Cc1cc(N2CCCN(C(=O)CCCOc3ccccc3)CC2)ccn1 [CBK307052] | 86.6 |
| CSc1ncc(C(=O)N2CCC(N3CCCC(O)C3)CC2)cn1 (stereo not shown) [CBK307055] | 106 |

| SMILES | viability at 28.5 h, 10 µM [%] |
| --- | --- |
| CCOC(=O)C1CCCN(Cc2cccc(Cl)c2Cl)C1 (stereo not shown) [CBK307056] | 85.2 |
| Cc1ncccc1OC1(C(=O)NCc2n[nH]c3c2CCC3)CCNCC1 [CBK307057] | 101 |
| Cc1cnn(C2(C(=O)O)CCN(C(=O)c3cccc(C#N)c3)CC2)c1 [CBK307058] | 102 |
| Cn1c(=O)n(C)c2cc(CNC(=O)COCC3CCCCO3)ccc21 (stereo not shown) [CBK307061] | 109 |
| Cc1ccc(F)c(OC2(C(=O)O)CCN(Cc3ncc[nH]3)CC2)c1 [CBK307062] | 85.2 |
| Cc1c(C(=O)N2CCC(N3CCSCC3)CC2)[nH]c2c(F)cccc12 [CBK307065] | 96.8 |
| CC(C)Cn1cncc1CNS(=O)(=O)c1cccc(C(=O)N2CCC2)c1 [CBK307068] | 90.3 |
| CSc1nccc(N2CCC(NCCn3c(C)cc(C)nc3=O)CC2)n1 [CBK307070] | 85.3 |
| COc1ccc(Cn2ncnc2CC2CCNCC2)cc1 [CBK307071] | 83.4 |
| CO[C@@]12CC[C@@H](OCC3CC3)C[C@@H]1N(Cc1c(C)cnn1C)CC2 [CBK307072] | 97 |
| CNC(=O)CN1C[C@H](NC(=O)c2cccc3c2NCCC3)[C@@H](C(C)C)C1 [CBK307073] | 80.6 |
| CC(=O)NC1CCN(c2nc(N(C)C)nc3c2CCN(C(C)=O)C3)CC1 [CBK307079] | 85.6 |
| Cn1ncc2c(NCCCN3CCCC(CO)C3)nc(C(C)(C)C)nc21 (stereo not shown) [CBK307082] | 93 |
| COCC(=O)NCc1cc2n(n1)CCN(Cc1cccs1)C2 [CBK307085] | 106 |
| O=c1cc(N2CCN(CC3(O)CCNC3)CC2)c(-c2ccccc2)n[nH]1 (stereo not shown) [CBK307088] | 107 |
| CCOc1ccc(NC(=O)N(C)Cc2noc(CC(C)C)n2)cc1C#N [CBK307089] | 85.2 |
| COc1cccc2ncn(CCCn3cccn3)c(=O)c12 [CBK307094] | 89.7 |
| CCN(CC)C(=O)c1c(NC(=O)c2cccs2)sc2c1CCC2 [CBK307096] | 93 |
| CCCN1CC(NS(=O)(=O)c2ccc(OC)c3c2CCCC3)CC1=O (stereo not shown) [CBK307098] | 79.7 |
| O=C(Nc1sc2c(c1C(=O)N1CCOCC1)CCCCC2)c1cccs1 [CBK307099] | 105 |
| CC1CCc2c(sc(NC(=O)c3cccs3)c2C(=O)N2CCOCC2)C1 (stereo not shown) [CBK307101] | 100 |
| CCc1noc(CN2CCCC(c3ccc(C(=O)O)cc3)C2)n1 (stereo not shown) [CBK307102] | 105 |
